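Dose response: 5 concentrations. Exposure: 48 h. Format: 96-well plates. Endpoint: linear interpolation; highest concentration if not reached. Abbreviation: GI50, concentration required for 50% inhibition of growth. TGI: total growth inhibition.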
Tests used:
Assay in all cases: DTP human tumour cell line panel, 48 h
A498 renal = test system: A498 renal
A549 NSCLC = test system: A549 NSCLC
ACHN renal = test system: ACHN renal
BT-549 breast = test system: BT-549 breast
CCRF-CEM leukemia = test system: CCRF-CEM leukemia
COLO 205 colon = test system: COLO 205 colon
DU-145 prostate = test system: DU-145 prostate
EKVX NSCLC = test system: EKVX NSCLC
HCC-2998 colon = test system: HCC-2998 colon
HCT-116 colon = test system: HCT-116 colon
HCT-15 colon = test system: HCT-15 colon
HL-60(TB) leukemia = test system: HL-60(TB) leukemia
HOP-62 NSCLC = test system: HOP-62 NSCLC
HOP-92 NSCLC = test system: HOP-92 NSCLC
HS 578T breast = test system: HS 578T breast
HT29 colon = test system: HT29 colon
IGROV1 ovarian = test system: IGROV1 ovarian
K-562 leukemia = test system: K-562 leukemia
KM12 colon = test system: KM12 colon
LOX IMVI melanoma = test system: LOX IMVI melanoma
M14 melanoma = test system: M14 melanoma
MALME-3M melanoma = test system: MALME-3M melanoma
MCF7 breast = test system: MCF7 breast
MDA-MB-231 breast = test system: MDA-MB-231 breast
MDA-MB-435 = test system: MDA-MB-435
MOLT-4 leukemia = test system: MOLT-4 leukemia
NCI-H226 lung = test system: NCI-H226 lung
NCI-H23 lung = test system: NCI-H23 lung
NCI-H460 lung = test system: NCI-H460 lung
NCI-H522 lung = test system: NCI-H522 lung
NCI/ADR-RES ovarian = test system: NCI/ADR-RES ovarian
OVCAR-3 ovarian = test system: OVCAR-3 ovarian
OVCAR-4 ovarian = test system: OVCAR-4 ovarian
OVCAR-5 ovarian = test system: OVCAR-5 ovarian
OVCAR-8 ovarian = test system: OVCAR-8 ovarian
RPMI-8226 leukemia = test system: RPMI-8226 leukemia
RXF 393 renal = test system: RXF 393 renal
SF-268 CNS = test system: SF-268 CNS
SF-295 CNS = test system: SF-295 CNS
SF-539 CNS = test system: SF-539 CNS
SK-MEL-2 melanoma = test system: SK-MEL-2 melanoma
SK-MEL-28 melanoma = test system: SK-MEL-28 melanoma
SK-MEL-5 melanoma = test system: SK-MEL-5 melanoma
SK-OV-3 ovarian = test system: SK-OV-3 ovarian
SN12C renal = test system: SN12C renal
SNB-19 CNS = test system: SNB-19 CNS
SNB-75 CNS = test system: SNB-75 CNS
SR leukemia = test system: SR leukemia
SW-620 colon = test system: SW-620 colon
T-47D breast = test system: T-47D breast
TK-10 renal = test system: TK-10 renal
U251 CNS = test system: U251 CNS
UACC-257 melanoma = test system: UACC-257 melanoma
UO-31 renal = test system: UO-31 renal

CS(=O)(=O)OCCn1c2c(c3c(O)cccc31)C(=O)c1ccccc1-2
GI50 (A498 renal): > 100 µM | TGI (A498 renal): > 100 µM | GI50 (A549 NSCLC): > 100 µM | TGI (A549 NSCLC): > 100 µM | GI50 (ACHN renal): 60.3 µM | TGI (ACHN renal): > 100 µM | GI50 (BT-549 breast): > 100 µM | TGI (BT-549 breast): > 100 µM | GI50 (CCRF-CEM leukemia): 37.1 µM | TGI (CCRF-CEM leukemia): > 100 µM | GI50 (COLO 205 colon): > 100 µM | TGI (COLO 205 colon): > 100 µM | GI50 (DU-145 prostate): > 100 µM | TGI (DU-145 prostate): > 100 µM | GI50 (EKVX NSCLC): > 100 µM | TGI (EKVX NSCLC): > 100 µM | GI50 (HCC-2998 colon): 36 µM | TGI (HCC-2998 colon): > 100 µM | GI50 (HCT-116 colon): 44.7 µM | TGI (HCT-116 colon): > 100 µM | GI50 (HCT-15 colon): > 100 µM | TGI (HCT-15 colon): > 100 µM | GI50 (HL-60(TB) leukemia): 30.9 µM | TGI (HL-60(TB) leukemia): > 100 µM | GI50 (HOP-62 NSCLC): 87.1 µM | TGI (HOP-62 NSCLC): > 100 µM | GI50 (HOP-92 NSCLC): 24.7 µM | TGI (HOP-92 NSCLC): > 100 µM | GI50 (HS 578T breast): > 100 µM | TGI (HS 578T breast): > 100 µM | GI50 (HT29 colon): 99.8 µM | TGI (HT29 colon): > 100 µM | GI50 (IGROV1 ovarian): > 100 µM | TGI (IGROV1 ovarian): > 100 µM | GI50 (K-562 leukemia): > 100 µM | TGI (K-562 leukemia): > 100 µM | GI50 (KM12 colon): 80.2 µM | TGI (KM12 colon): > 100 µM | GI50 (LOX IMVI melanoma): 54.1 µM | TGI (LOX IMVI melanoma): > 100 µM | GI50 (M14 melanoma): > 100 µM | TGI (M14 melanoma): > 100 µM | GI50 (MALME-3M melanoma): > 100 µM | TGI (MALME-3M melanoma): > 100 µM | GI50 (MCF7 breast): > 100 µM | TGI (MCF7 breast): > 100 µM | GI50 (MDA-MB-231 breast): 20.4 µM | TGI (MDA-MB-231 breast): > 100 µM | GI50 (MDA-MB-435): 46 µM | TGI (MDA-MB-435): > 100 µM | GI50 (MOLT-4 leukemia): 36.5 µM | TGI (MOLT-4 leukemia): > 100 µM | GI50 (NCI-H226 lung): 39.7 µM | TGI (NCI-H226 lung): > 100 µM | GI50 (NCI-H23 lung): > 100 µM | TGI (NCI-H23 lung): > 100 µM | GI50 (NCI-H460 lung): > 100 µM | TGI (NCI-H460 lung): > 100 µM | GI50 (NCI-H522 lung): 95.1 µM | TGI (NCI-H522 lung): > 100 µM | GI50 (NCI/ADR-RES ovarian): > 100 µM | TGI (NCI/ADR-RES ovarian): > 100 µM | GI50 (OVCAR-3 ovarian): 66.6 µM | TGI (OVCAR-3 ovarian): > 100 µM | GI50 (OVCAR-4 ovarian): > 100 µM | TGI (OVCAR-4 ovarian): > 100 µM | GI50 (OVCAR-5 ovarian): > 100 µM | TGI (OVCAR-5 ovarian): > 100 µM | GI50 (OVCAR-8 ovarian): > 100 µM | TGI (OVCAR-8 ovarian): > 100 µM | GI50 (RPMI-8226 leukemia): 19.7 µM | TGI (RPMI-8226 leukemia): > 100 µM | GI50 (RXF 393 renal): > 100 µM | TGI (RXF 393 renal): > 100 µM | GI50 (SF-268 CNS): 78.5 µM | TGI (SF-268 CNS): > 100 µM | GI50 (SF-295 CNS): 84.3 µM | TGI (SF-295 CNS): > 100 µM | GI50 (SF-539 CNS): > 100 µM | TGI (SF-539 CNS): > 100 µM | GI50 (SK-MEL-2 melanoma): > 100 µM | TGI (SK-MEL-2 melanoma): > 100 µM | GI50 (SK-MEL-28 melanoma): > 100 µM | TGI (SK-MEL-28 melanoma): > 100 µM | GI50 (SK-MEL-5 melanoma): > 100 µM | TGI (SK-MEL-5 melanoma): > 100 µM | GI50 (SK-OV-3 ovarian): 29 µM | TGI (SK-OV-3 ovarian): > 100 µM | GI50 (SN12C renal): 33.7 µM | TGI (SN12C renal): > 100 µM | GI50 (SNB-19 CNS): 40.7 µM | TGI (SNB-19 CNS): > 100 µM | GI50 (SNB-75 CNS): > 100 µM | TGI (SNB-75 CNS): > 100 µM | GI50 (SR leukemia): 10.3 µM | TGI (SR leukemia): > 100 µM | GI50 (SW-620 colon): > 100 µM | TGI (SW-620 colon): > 100 µM | GI50 (T-47D breast): 64.7 µM | TGI (T-47D breast): > 100 µM | GI50 (TK-10 renal): > 100 µM | TGI (TK-10 renal): > 100 µM | GI50 (U251 CNS): 77.3 µM | TGI (U251 CNS): > 100 µM | GI50 (UACC-257 melanoma): > 100 µM | TGI (UACC-257 melanoma): > 100 µM | GI50 (UO-31 renal): > 100 µM | TGI (UO-31 renal): > 100 µM
